This is an account of results in patent US20140045890A1, “NOVEL COMPOUNDS” (SYNGENTA PARTICIPATIONS AG, priority 2011, published 2014).

“And” between values parts separate entries of the source, which are not always exact repeats. Equal entries are not always repeated. Bounds are passed on as bounds.

The subject of series [1] is Blumeria qraminis f. sp. tritici (Erysiphe qraminis f. sp. tritici). Description: Blumeria graminis f. sp. tritici / wheat / leaf disc preventative (powdery mildew on wheat). Type of series: in vivo. Conditions: foliar, wheat leaf segments cv. Kanzler, inoculated 1 day after application, assessed 6-8 days after application, read-out: inhibit fungal infestation (percent disease control compared to untreated).

Series [2] has as its system Phaeosphaeria nodorum (Septoria nodorum). Description: Phaeosphaeria nodorum (Septoria nodorum) / wheat / leaf disc preventative (glume blotch). Type of series: in vivo. As to conditions: Parastagonospora nodorum, foliar, wheat leaf segments cv. Kanzler, inoculated 2 days after application, assessed 5-7 days after application, read-out: inhibit fungal infestation (percent disease control compared to untreated).

Series [3] deals with Plasmopara viticola. Description: Plasmopara viticola / grape / leaf disc preventative. Type of series: in vivo. As to conditions: foliar, grape vine leaf disks, inoculated 1 day after application, assessed 6-8 days after application, read-out: inhibit fungal infestation (percent disease control compared to untreated).
Series [4] deals with Pythium ultimum. Description: Pythium ultimum / liquid culture (seedling damping off). The series is classed as cell-based. As to conditions: Globisporangium ultimum, liquid culture in PDB, 24° C., 2-3 days after application, read-out: inhibit fungal infestation (inhibition of growth determined photometrically).
The subject of series [5] is Phytophthora infestans. Description: whole plant or invertebrate. The series is classed as in vivo. As to conditions: in Solanum lycopersicum, foliar, read-out: inhibit fungal infestation (percent disease control compared to untreated).

As usually defined, the melting point is the temperature, or range, at which the solid turns liquid. As to `C#Cc1cnc2c(C)cc(OC(SC)C(=O)NC(C)(C)c3ccccn3)cc2c1` (centres unmarked) [Compound 7], the melting point worked out at 113 °C. Also, the inhibition at 200 ppm in series [1] is ≥ 80%. Moreover, the inhibition at 200 ppm in series [2] is ≥ 80%. Moreover, the inhibition at 200 ppm in series [3] was ≥ 80%. Further, in series [4], the inhibition at 200 ppm is ≥ 80%. Moreover, the inhibition at 200 ppm in series [5] was ≥ 80%.

Compound `CSC(Oc1ccc2ncc(Br)cc2c1)C(=O)NC(C)(C)c1ccccn1` (centres unmarked) [Compound 8] came in with a melting point of 105 °C. In series [1], the inhibition at 200 ppm is ≥ 80%. The inhibition at 200 ppm in series [2] is ≥ 80%. The inhibition at 200 ppm in series [3] is ≥ 80%. In addition, in series [4], the inhibition at 200 ppm is ≥ 80%. In addition, the inhibition at 200 ppm in series [5] was ≥ 80%.

`CSC(Oc1cc(C)c2ncc(Br)cc2c1)C(=O)NC(C)(C)c1ccccn1` (centres unmarked) [Compound 9] showed a melting point of 123 °C. Further, in series [1], the inhibition at 200 ppm was ≥ 80%. Also, in series [2], the inhibition at 200 ppm is ≥ 80%. The inhibition at 200 ppm in series [3] is ≥ 80%. For the same compound, the inhibition at 200 ppm in series [4] was ≥ 80%. Moreover, in series [5], the inhibition at 200 ppm is ≥ 80%.

For the compound `C#Cc1cnc2c(Cl)cc(OC(SC)C(=O)NC(C)(C)c3ccccn3)cc2c1` (centres unmarked) [Compound 10], the melting point turned out to be 153 °C. Moreover, the inhibition at 200 ppm in series [1] was ≥ 80%. In addition, the inhibition at 200 ppm in series [2] is ≥ 80%. Moreover, the inhibition at 200 ppm in series [3] was ≥ 80%. The inhibition at 200 ppm in series [4] is ≥ 80%. For the same compound, the inhibition at 200 ppm in series [5] was ≥ 80%.

The compound `CCc1cc(C(C)(C)NC(=O)C(Oc2ccc3ncc(I)cc3c2)SC)no1` (centres unmarked) [Compound 23] came in with a melting point of 125 °C. Also, the inhibition at 200 ppm in series [1] was ≥ 80%. For the same compound, in series [3], the inhibition at 200 ppm is ≥ 80%. Moreover, in series [4], the inhibition at 200 ppm was ≥ 80%. Also, the inhibition at 200 ppm in series [5] was ≥ 80%.

As to `C#Cc1cnc2ccc(OC(SC)C(=O)NC(C)(C)c3nc(C)cs3)cc2c1` (centres unmarked) [Compound 28], the melting point is 97 to 99 °C and 97 °C. Also, the inhibition at 200 ppm in series [1] is ≥ 80%. The inhibition at 200 ppm in series [3] was ≥ 80%. Further, the inhibition at 200 ppm in series [4] is ≥ 80%. The inhibition at 200 ppm in series [5] is ≥ 80%.

Compound `C#Cc1cnc2ccc(OC(SC)C(=O)NCc3nc(C)cs3)cc2c1` (centres unmarked) [Compound 30] gave a melting point of 115 °C. Moreover, the inhibition at 200 ppm in series [1] is ≥ 80%. Besides, the inhibition at 200 ppm in series [3] is ≥ 80%. Further, in series [4], the inhibition at 200 ppm was ≥ 80%. The inhibition at 200 ppm in series [5] was ≥ 80%.

Take `C#Cc1cnc2ccc(OC(SC)C(=O)NC(C)(C)c3ccccn3)cc2c1` (centres unmarked) [Compound 33]: the inhibition at 200 ppm in series [1], in series [2], in series [3], in series [4] and in series [5] was ≥ 80% in each case.

Consider `C#Cc1cnc2c(C)cc(OC(SC)C(=O)NC(C)(C)c3ccon3)cc2c1` (centres unmarked) [Compound 39, 2-[(3-ethynyl-8-methyl-6-quinolyl)oxy]-N-(1-isoxazol-3-yl-1-methyl-ethyl)-2-methylsulfanyl-acetamide], for which the inhibition at 200 ppm in series [1], in series [2], in series [3], in series [4] and in series [5] was ≥ 80% throughout.

`C#Cc1cnc2ccc(OC(SC)C(=O)NC(C)(C)c3ccon3)cc2c1` (centres unmarked) [Compound 44]: the inhibition at 200 ppm in series [1], in series [2], in series [3], in series [4] and in series [5] was ≥ 80% each time.

`C#Cc1cnc2c(C)cc(OC(SC)C(=O)NC(C)(C)c3nocc3Br)cc2c1` (centres unmarked) [Compound 45, N-[1-(4-bromoisoxazol-3-yl)-1-methyl-ethyl]-2-[(3-ethynyl-8-methyl-6-quinolyl)oxy]-2-methylsulfanyl-acetamide] gave a melting point of 63 to 65 °C. The inhibition at 200 ppm in series [1] was ≥ 80%. In addition, the inhibition at 200 ppm in series [2] was ≥ 80%. In series [3], the inhibition at 200 ppm was ≥ 80%. Besides, the inhibition at 200 ppm in series [4] was ≥ 80%.

For `C#Cc1cnc2ccc(OC(SC)C(=O)NC(C)(C)c3nocc3Cl)cc2c1` (centres unmarked) [Compound 51], the inhibition at 200 ppm in series [1], in series [2], in series [3], in series [4] and in series [5] was ≥ 80% throughout.

Turning to `C#Cc1cnc2ccc(OC(SC)C(=O)NC(C)(C)c3cc(C)on3)cc2c1` (centres unmarked) [Compound 53], the inhibition at 200 ppm in series [1], in series [2], in series [3], in series [4] and in series [5] was ≥ 80% each time.

For `C#Cc1cnc2c(C)cc(OC(SC)C(=O)NC(CC)c3ccccn3)cc2c1` (centres unmarked) [Compound 60], the inhibition at 200 ppm in series [1], in series [2] and in series [4] was ≥ 80% each time.

Turning to `C#Cc1cnc2c(Cl)cc(OC(SC)C(=O)NC(C)(C)c3cc(C)on3)cc2c1` (centres unmarked) [Compound 68], the inhibition at 200 ppm in series [1], in series [2], in series [3] and in series [4] was ≥ 80% in each case.

For the compound `C#Cc1cnc2ccc(OC(SC)C(=O)NC(C)(C)c3cc(Cl)on3)cc2c1` (centres unmarked) [Compound 73], the inhibition at 200 ppm in series [1], in series [2], in series [3], in series [4] and in series [5] was ≥ 80% in each case.

As for `C#Cc1cnc2c(C)cc(OC(SC)C(=O)NC(C)(C)c3nocc3C)cc2c1` (centres unmarked) [Compound 75], the inhibition at 200 ppm in series [2], in series [3] and in series [4] was ≥ 80% in each case.

On to `C#Cc1cnc2ccc(OC(SC)C(=O)NC(C)(C)c3nocc3C)cc2c1` (centres unmarked) [Compound 78], for which the inhibition at 200 ppm in series [1], in series [2], in series [3] and in series [4] was ≥ 80% throughout.

As for `C#Cc1cnc2cc(F)c(OC(SC)C(=O)NC(C)(C)c3cccc(C)n3)cc2c1` (centres unmarked) [Compound 111], the inhibition at 200 ppm in series [1], in series [2] and in series [4] was ≥ 80% each time.

On to `C#Cc1cnc2c(Cl)cc(OC(SC)C(=O)NC(C)(C)c3cccc(C)n3)cc2c1` (centres unmarked) [Compound 113], for which the inhibition at 200 ppm in series [1], in series [2] and in series [4] was ≥ 80% in each case.

In the case of `C#Cc1cnc2c(C)cc(OC(SC)C(=O)NCc3nccs3)cc2c1` (centres unmarked) [Compound 116], the inhibition at 200 ppm in series [2] and in series [4] was ≥ 80% throughout.

For `C#Cc1cnc2c(Cl)cc(OC(SC)C(=O)NCc3nccs3)cc2c1` (centres unmarked) [Compound 117], the inhibition at 200 ppm in series [1], in series [2] and in series [4] was ≥ 80% throughout.

Take `C=Cc1cnc2c(F)cc(OC(CC)C(=O)NC(C)(C)c3nccs3)cc2c1` (centres unmarked) [Compound 137]: the melting point turned out to be 102 °C. Also, the inhibition at 200 ppm in series [1] is ≥ 80%. The inhibition at 200 ppm in series [3] is ≥ 80%. For the same compound, the inhibition at 200 ppm in series [4] was ≥ 80%. In addition, the inhibition at 200 ppm in series [5] is ≥ 80%.
